{"source": "patent US6136797A", "about": "“Phospholipid derivatives of phosphono-carboxylic acids, the production of said derivatives and the use of said derivatives as antiviral medicaments” (priority 1995, dated 2000)", "key": {"[1]": {"test_system": "HSV 1 and 2, influenza, HBV, VZV, EBV as well as retroviral infections", "conditions": "cited from earlier work"}, "[2]": {"conditions": "due to similarity to pyrophosphate by accumulation in bones; cited from earlier work"}, "[3]": {"test_system": "bone marrow stem cells of the granulocytic/monocytic series", "assay": "Bone marrow toxicity in vitro (CFU-GM assay)", "conditions": "for toxicity on bone marrow stem cells of the granulocytic/monocytic series: in words, up to the highest tested concentration of 100 μg/ml"}, "bone marrow": {"test_system": "bone marrow", "conditions": "AIDS patients; cited from earlier work"}, "[4]": {"assay": "Stability (in the investigations and during production)", "assay_type": "physicochemical", "conditions": "in the investigations and during production / under the same conditions"}, "[5]": {"test_system": "Murine Cytomegaly Virus (MCMV)", "assay": "Murine Cytomegaly Virus (MCMV) model, survival rate", "assay_type": "in vivo, female Balb/c mice", "conditions": "8×10^5 PFU i.p.; oral bioavailability model; drug dose not given", "description": "Female Balb/c mice were treated i.p. with a dose of 8×10^5 PFU (plaque forming units)."}}, "note": "Structures can show the parent of a compound that is named as a salt.", "data": [{"smiles": "O=C(O)CP(=O)(O)O", "note": "[phosphonoacetic acid]", "values": [{"measurement": "antiviral activity", "setting": "[1]", "result": "good antiviral activity"}, {"measurement": "toxicity", "setting": "[2]", "result": "toxic"}, {"measurement": "IC50", "setting": "[3]; Mus musculus, CFU-GM", "result": 62.9, "unit": "µg/mL"}, {"measurement": "toxicity on bone marrow stem cells of the granulocytic/monocytic series", "setting": "[3]", "result": "more toxic than DMDOP-PFA and DMDOP-PAA"}]}, {"smiles": "Cc1cn([C@H]2C[C@H](N=[N+]=[N-])[C@@H](CO)O2)c(=O)[nH]c1=O", "note": "[3'-azido-3'-deoxythymidine, 3'-Azido-3'-deoxythymidine]", "values": [{"measurement": "treated patients needing blood transfusions due to toxic side effects on the bone marrow", "setting": "bone marrow", "result": "about 50%"}]}, {"smiles": "CCCCCCCCCCCCCCCCCCOC[C@@H](O)COP(=O)(O)C(=O)O", "note": "[batylphosphonoformate, 1-O-octadecyl-sn-glycero-3-phosphono-formate]", "values": [{"measurement": "stability", "setting": "[4]", "result": "unstable"}]}, {"smiles": "COc1cccc2c1C(=O)c1c(O)c3c(c(O)c1C2=O)C[C@@](O)(C(=O)CO)C[C@@H]3O[C@H]1C[C@H](N)[C@H](O)[C@H](C)O1", "note": "[Doxorubicin]", "values": [{"measurement": "IC50", "setting": "[3]; Mus musculus, CFU-GM", "result": "0.046 ± 0.007", "unit": "µg/mL"}]}, {"smiles": "CCCCCCCCCCCCSCC(COP(=O)(O)C(=O)O)OCCCCCCCCCC", "note": "(racemic) [DMDOP-PFA, R,S-(3-Dodecylmercapto-2-decyloxy)-propoxy-hydroxy-phosphinyl-formic acid di-sodium salt]", "values": [{"measurement": "survival rate of the animals (rank order)", "setting": "[5]", "result": "untreated<Foscarnet treated<DMDOP-PFA treated<DMDOP-PFA-OMe"}, {"measurement": "IC50", "setting": "[3]; Mus musculus, CFU-GM", "result": "> 100", "unit": "µg/mL"}, {"measurement": "toxicity on bone marrow stem cells of the granulocytic/monocytic series", "setting": "[3]", "result": "no toxicity"}]}, {"smiles": "CCCCCCCCCCCCCCCCCCOCC(O)COP(=O)(O)C(=O)O", "note": "(stereo not drawn) [OOHP-PFA, (3-octadecyloxy-2-hydroxy)-propoxy-hydroxy-phosphinylformic acid]", "values": [{"measurement": "IC50", "setting": "[3]; Mus musculus, CFU-GM", "result": 94.5, "unit": "µg/mL"}, {"measurement": "toxicity on bone marrow stem cells of the granulocytic/monocytic series", "setting": "[3]", "result": "more toxic than DMDOP-PFA and DMDOP-PAA"}]}, {"smiles": "CCCCCCCCCCCCSCC(COP(=O)(O)C(=O)OC)OCCCCCCCCCC", "note": "(racemic) [DMDOP-PFA-OMe, R,S-(3-dodecylmercapto-2-decyloxy)propoxy-hydroxy-phosphinylformic acid methyl ester]", "values": [{"measurement": "survival rate of the animals (rank order)", "setting": "[5]", "result": "untreated<Foscarnet treated<DMDOP-PFA treated<DMDOP-PFA-OMe"}]}, {"smiles": "CCCCCCCCCCCCSCC(COP(=O)(O)CC(=O)O)OCCCCCCCCCC", "note": "(racemic) [DMDOP-PAA, R,S-(3-dodecylmercapto-2-decyloxy)-propoxy-hydroxy-phosphinyl acetic acid di-sodium salt]", "values": [{"measurement": "IC50", "setting": "[3]; Mus musculus, CFU-GM", "result": "> 100", "unit": "µg/mL"}, {"measurement": "toxicity on bone marrow stem cells of the granulocytic/monocytic series", "setting": "[3]", "result": "no toxicity"}]}, {"smiles": "O=C(O)P(=O)(O)O", "note": "[phosphonoformic acid]", "values": [{"measurement": "survival rate of the animals (rank order)", "setting": "[5]", "result": "untreated<Foscarnet treated<DMDOP-PFA treated<DMDOP-PFA-OMe"}, {"measurement": "toxicity", "setting": "[2]", "result": "toxic"}, {"measurement": "IC50", "setting": "[3]; Mus musculus, CFU-GM", "result": "> 100", "unit": "µg/mL"}]}, {"smiles": "CCCCCCCCCCCCCCCCCCOCC(O)COP(=O)(O)C(=O)OCC", "note": "(stereo not drawn) [OOHP-PFAE, (3-octadecyloxy-2-hydroxy)-propoxy-hydroxy-phosphinylformic ethyl ester]", "values": [{"measurement": "IC50", "setting": "[3]; Mus musculus, CFU-GM", "result": 59.4, "unit": "µg/mL"}, {"measurement": "toxicity on bone marrow stem cells of the granulocytic/monocytic series", "setting": "[3]", "result": "more toxic than DMDOP-PFA and DMDOP-PAA"}]}, {"smiles": "N.N.[Cl][Pt][Cl]", "note": "[Cis-DDP (Cisplatin), Cisplatin]", "values": [{"measurement": "IC50", "setting": "[3]; CFU-GM assay, mean value±SEM, number of experiments in parentheses, highest tested concentration 100 μg/ml", "result": "0.45 ± 0.11", "unit": "µg/mL"}]}]}
